Experiment: xn = mol fraction of the nth substance listed

CCOC(C)=O + CN1CCCC1=O
viscosity [mPa·s], 101 kPa
Conditions	x2 = 0.1022	x2 = 0.2038	x2 = 0.305	x2 = 0.4057	x2 = 0.506	x2 = 0.6057	x2 = 0.705	x2 = 0.8038	x2 = 0.9021
303.15 K	0.556	0.725	0.879	1.023	1.154	1.271	1.369	1.449	1.511
308.15 K	0.523	0.669	0.804	0.928	1.042	1.147	1.235	1.307	1.365
313.15 K	0.492	0.628	0.753	0.869	0.975	1.07	1.153	1.221	1.274
318.15 K	0.462	0.582	0.695	0.798	0.893	0.976	1.051	1.114	1.165

CCOc1ccccc1 + CN1CCCC1=O
viscosity [mPa·s], 101.33 kPa
Conditions	x1 = 0.041	x1 = 0.122	x1 = 0.201	x1 = 0.273	x1 = 0.37	x1 = 0.504	x1 = 0.628	x1 = 0.709	x1 = 0.822
298 K	1.667	1.648	1.622	1.594	1.551	1.481	1.408	1.36	1.285
303 K	1.541	1.518	1.49	1.461	1.418	1.353	1.286	1.242	1.175
308 K	1.432	1.406	1.377	1.348	1.307	1.244	1.183	1.141	1.08

CCOc1ccccc1 + CN(C)C=O
viscosity [mPa·s], 101.33 kPa
Conditions	x1 = 0.031	x1 = 0.091	x1 = 0.153	x1 = 0.223	x1 = 0.304	x1 = 0.463	x1 = 0.556	x1 = 0.642	x1 = 0.8
298 K	0.815	0.839	0.862	0.889	0.919	0.978	1.012	1.042	1.097
303 K	0.769	0.788	0.808	0.831	0.857	0.907	0.936	0.963	1.01
308 K	0.73	0.747	0.763	0.783	0.804	0.847	0.871	0.893	0.933

OCC(O)CO + CN(C)C=O
viscosity [mPa·s], 101 kPa
Conditions	x1 = 0.105	x1 = 0.209	x1 = 0.312	x1 = 0.414	x1 = 0.514	x1 = 0.613	x1 = 0.712	x1 = 0.809	x1 = 0.905
303.15 K	1.5	2.41	4.22	7.36	14.2	19.9	64.6	127.5	258.7
318.15 K	1.24	1.84	2.91	4.77	8.35	–	27.3	50.5	91.1

CCCCCCCCn1cc[n+](C)c1.[Cl-] + CO
298.15 K, 101 kPa
Conditions	viscosity [mPa·s]
x2 = 0.0565	10350
x2 = 0.1686	3456
x2 = 0.3525	534

CCOC(C)=O + CO
viscosity [mPa·s]
Conditions	293.15 K	298.15 K	303.15 K	308.15 K	313.15 K	318.15 K	323.15 K
100 kPa, x2 = 0.4071	0.4216	0.4015	0.384	0.365	0.3527	0.3431	0.3216
100 kPa, x2 = 0.6468	0.4612	0.4319	0.4112	0.3868	0.3681	0.3501	0.3336
100 kPa, x2 = 0.8048	0.499	0.4697	0.4463	0.4182	0.3988	0.3758	0.3564
100 kPa, x2 = 0.9168	0.5454	0.5164	0.4893	0.4559	0.4327	0.4083	0.3858
101 kPa, x1 = 0.065	0.549	–	0.477	–	0.424	–	0.378
101 kPa, x1 = 0.115	0.528	–	0.462	–	0.413	–	0.368
101 kPa, x1 = 0.306	0.475	–	0.422	–	0.377	–	0.342
101 kPa, x1 = 0.321	0.471	–	0.418	–	0.376	–	0.341
101 kPa, x1 = 0.445	–	–	–	–	0.364	–	0.333
101 kPa, x1 = 0.598	0.444	–	0.397	–	0.36	–	0.328
101 kPa, x1 = 0.797	–	–	–	–	0.362	–	0.332
